In US9833454B2, “Difluoromethoxy compound with low bioactivation potential for the reduction of beta-amyloid production” (BRISTOL-MYERS SQUIBB COMPANY, priority 2014, dated 2017):
Where “and” joins values, the source holds several entries; their conditions need not be identical. Equal entries are not always repeated. Where two headings read alike, the source gives them in different places.

How the values were obtained:
[1] = system: major human Cytochrome P450 (CYP) enzymes; assay: HLM TDI panel, other CYP enzymes; type: in vitro ADME; details: CYP enzymes other than 3A4 and 2D6
CYP2C19 [2] = target: T1, CYP2C19 (Homo sapiens, UniProt P33261); assay: Inhibition of CYP enzymes in human liver microsomes (HLM), CYP2C19
CYP3A4 [3] = target: T2, CYP3A4 (Homo sapiens, UniProt P08684); assay: biochemical
CYP3A4 [4] = target: T2, CYP3A4; assay: HLM CYP3A4 Inactivation Assay; type: in vitro ADME
Description: Human liver microsomes pooled from 150 donors (UltraPool 150), [^13C3]1′-hydroxymidazolam and [^2H7]6β-hydroxytestosterone were purchased from BD Gentest (Woburn, Mass.), midazolam and testosterone from Sigma-Aldrich (Saint Louis, Mo.), NADPH from AKRON Biotech (Boca Raton, Fla.).
After a 2-minute incubation at 37° C., the secondary reactions were terminated by the addition of a quench buffer (1:1, v/v), containing an internal standard (stable-isotope-labeled metabolite of the probe substrate).
Reaction buffer (in both primary and secondary reactions) consisted of 100 mM potassium phosphate, pH 7.4, 2 mM MgCl2, and 1 mM NADPH. Quench buffer was a mixture of water, acetonitrile, and formic acid (94:5:1, v/v/v) containing one of the internal standards (0.2 μM [^13C3]1′-hydroxymidazolam or 3 μM [^2H7]6β-hydroxytestosterone).
Quenched reaction mixtures (in 96-well microplates) were initially frozen at −80° C. and then, before LC-MS/MS analysis, the samples were thawed at room temperature and centrifuged at ˜2500×g for 10 minutes to precipitate denatured microsomal protein. Supernatants were used to quantify the amount of a metabolite of the probe substrate in the reaction samples.
The LC-MS/MS system consisted of a Thermo Cohesive ARIA LX-2 (Waltham, Mass.) with Shimadzu LC-20AD XR pumps (Kyoto, Japan) for gradient elution and an AB Sciex API 4500 triple-quadrupole mass spectrometer (Foster City, Calif.), using Turbo V™ source for sample analysis. Samples were injected using dual-arm CTC HTS PAL autosampler from LEAP Technologies (Carrboro, N.C.
To quantify 1′-hydroxymidazolam, the mass spectrometer was operated under positive ionization mode and SRM used for analysis. […] The dwell time was 75 ms for each transition. The declustering potential was 70 V and the collision energy 38 eV. A Kinetex 2.6 μm XB-C18 100A, 50 mm×2.1 mm HPLC column from Phenomenex (Torrance, Calif.) and the injection volume was 10 μL. Mobile phase A was water with 0.2% formic acid, and mobile phase B was acetonitrile with 0.2% formic acid. […] The total cycle time was 90 seconds per injection.
To quantify 6β-hydroxytestosterone, the mass spectrometer was operated under positive ionization mode and SRM used for analysis. […]
The signal intensity of the metabolite in MS/MS analysis was normalized to the signal of internal standard; thus signal intensity was expressed as signal ratio. […] Percent CYP3A4 enzyme activity remaining after preincubation was calculated as: % Activity(Remaining)=(S/T)*100 Where: S=sample signal, T=solvent control signal,
The kinetic parameters (kinact and KI) were then calculated by fitting the kobs values plotted against inhibitor concentrations ([I]) using the non-linear regression model (Michaelis-Menten equation) in the GRAPH PAD PRISM v.5.0 software (San Diego, Calif.):

monoamine oxidase A = target: T3, monoamine oxidase A (Homo sapiens, UniProt P21397); assay: In vitro safety: off-target receptor binding and enzyme assays, MAO A; type: biochemical; details: in vitro safety panel
T3 sequence (P21397 1-527): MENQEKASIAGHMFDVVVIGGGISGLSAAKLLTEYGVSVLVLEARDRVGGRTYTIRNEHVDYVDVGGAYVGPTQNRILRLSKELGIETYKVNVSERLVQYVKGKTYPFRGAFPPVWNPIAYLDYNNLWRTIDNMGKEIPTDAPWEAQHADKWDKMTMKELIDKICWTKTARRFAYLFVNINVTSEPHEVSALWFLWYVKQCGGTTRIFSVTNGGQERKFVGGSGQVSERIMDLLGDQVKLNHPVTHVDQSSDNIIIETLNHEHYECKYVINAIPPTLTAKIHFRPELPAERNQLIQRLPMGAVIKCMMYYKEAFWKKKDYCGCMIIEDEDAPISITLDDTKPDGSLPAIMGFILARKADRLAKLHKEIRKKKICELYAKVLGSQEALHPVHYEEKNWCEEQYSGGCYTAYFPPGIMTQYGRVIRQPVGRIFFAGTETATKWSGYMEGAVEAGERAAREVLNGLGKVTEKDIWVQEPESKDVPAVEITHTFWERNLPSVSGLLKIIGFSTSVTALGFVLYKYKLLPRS
Description: (§1) A range of off-target receptor binding assays and enzyme assays were carried out using conventional methods available in the art.

CYP2C19 [5] = target: T1, CYP2C19; assay: Inhibition of recombinant CYP enzymes (rCYP), CYP2C19; type: in vitro ADME; details: average of two experiments, read-out: rCYP IC50 2C19
CYP2B6 = target: T4, CYP2B6 (Homo sapiens, UniProt P20813); assay: Inhibition of CYP enzymes in human liver microsomes (HLM), CYP2B6; type: in vitro ADME
T4 sequence (P20813 1-491): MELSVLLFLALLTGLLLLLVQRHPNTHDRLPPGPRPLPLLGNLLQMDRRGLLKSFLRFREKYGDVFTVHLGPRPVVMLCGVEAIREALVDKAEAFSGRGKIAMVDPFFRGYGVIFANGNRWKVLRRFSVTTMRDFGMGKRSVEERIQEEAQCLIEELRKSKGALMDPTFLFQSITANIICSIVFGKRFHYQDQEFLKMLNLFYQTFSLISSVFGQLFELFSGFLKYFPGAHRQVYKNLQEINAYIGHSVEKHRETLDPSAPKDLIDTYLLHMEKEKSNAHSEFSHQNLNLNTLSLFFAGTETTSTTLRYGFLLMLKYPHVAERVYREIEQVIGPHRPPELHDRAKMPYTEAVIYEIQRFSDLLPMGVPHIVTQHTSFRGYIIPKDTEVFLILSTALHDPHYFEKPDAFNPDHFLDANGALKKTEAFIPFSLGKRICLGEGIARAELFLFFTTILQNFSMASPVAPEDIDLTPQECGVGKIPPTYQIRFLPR

dopamine transporter = dopamine transporter (Homo sapiens, UniProt Q01959); assay: In vitro safety: off-target receptor binding and enzyme assays, DAT; details: in vitro safety panel
Description: as §1

adenosine 2A receptor = adenosine 2A receptor (Homo sapiens, UniProt P29274); assay: In vitro safety: off-target receptor binding and enzyme assays, A2A; details: in vitro safety panel
Description: as §1

[6] = target: 43 receptor and Enzyme panel (all others); assay: In vitro safety: 43 receptor and enzyme panel, all others; details: targets other than A2A, DAT, D1, MAO A, read-out: 43 receptor and Enzyme IC50s, all others
Description: as §1

CYP3A4 [7] = target: T2, CYP3A4; assay: Inhibition of CYP enzymes in human liver microsomes (HLM), CYP3A4 (midazolam and testosterone); details: IC50 shift 0 vs 30 min preincubation (TDI ratio)
CYP2C8 = target: T5, CYP2C8 (Homo sapiens, UniProt P10632); assay: Inhibition of CYP enzymes in human liver microsomes (HLM), CYP2C8; type: in vitro ADME
T5 sequence (P10632 1-490): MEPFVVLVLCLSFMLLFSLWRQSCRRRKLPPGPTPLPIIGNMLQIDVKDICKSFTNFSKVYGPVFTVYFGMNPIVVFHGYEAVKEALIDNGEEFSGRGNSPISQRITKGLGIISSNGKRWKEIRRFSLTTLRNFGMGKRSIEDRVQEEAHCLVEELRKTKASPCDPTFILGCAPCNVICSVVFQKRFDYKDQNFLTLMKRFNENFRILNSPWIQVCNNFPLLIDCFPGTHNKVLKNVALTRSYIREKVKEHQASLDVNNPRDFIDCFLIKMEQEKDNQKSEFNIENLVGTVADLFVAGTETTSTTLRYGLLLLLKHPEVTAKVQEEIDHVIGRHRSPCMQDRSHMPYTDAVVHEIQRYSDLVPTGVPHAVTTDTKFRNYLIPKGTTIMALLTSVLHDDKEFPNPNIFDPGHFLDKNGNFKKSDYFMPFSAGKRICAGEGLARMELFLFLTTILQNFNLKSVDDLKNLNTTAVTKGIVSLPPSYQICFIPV

Aβ42 = assay: Determination of Aβ42 IC50; type: cell-based
Description: Aβ42 IC50 was determined as described by Gillman, J. E. Starrett Jr., M. F. Parker, et al., “Discovery and evaluation of BMS-708163, a potent, and orally bioavailable gamma-secretase inhibitor”, ACS Medicinal Chemistry Letters, vol. 1., pp. 120-124, 2010. Mouse brain Aβ42 was determined as described by J. H. Toyn, X-A. Lin, M. W. Thompson et al., “Viable mouse gene ablations that robustly alter bran Abeta levels are are”, Biomed. Central Neuroscience, vol. 11, pp. 143, […].

CYP2C9 = CYP2C9 (Homo sapiens, UniProt P11712); assay: Inhibition of recombinant CYP enzymes (rCYP), CYP2C9; type: in vitro ADME; details: average of two experiments, read-out: rCYP IC50 2C9
[8] = HLM, IC50 shift 0 vs 30 min preincubation (TDI ratio)
[9] = HLM, all tested concentrations 0.31-20 μM, up to 25 min

T1 sequence (P33261 whole entry): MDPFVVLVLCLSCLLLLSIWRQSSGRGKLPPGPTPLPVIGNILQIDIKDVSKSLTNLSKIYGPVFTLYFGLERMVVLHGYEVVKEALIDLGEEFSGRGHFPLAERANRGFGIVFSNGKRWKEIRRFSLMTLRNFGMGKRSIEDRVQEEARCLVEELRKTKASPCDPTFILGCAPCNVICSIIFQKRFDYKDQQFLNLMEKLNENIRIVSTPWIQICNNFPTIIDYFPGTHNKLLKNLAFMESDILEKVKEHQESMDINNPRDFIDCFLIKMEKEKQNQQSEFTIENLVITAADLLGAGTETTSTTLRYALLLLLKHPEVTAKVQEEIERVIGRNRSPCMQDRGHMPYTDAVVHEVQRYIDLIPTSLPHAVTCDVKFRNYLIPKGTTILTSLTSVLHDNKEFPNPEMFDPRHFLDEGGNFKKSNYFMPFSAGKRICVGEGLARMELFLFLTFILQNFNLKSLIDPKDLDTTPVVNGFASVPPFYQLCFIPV
T2 sequence (P08684 whole entry): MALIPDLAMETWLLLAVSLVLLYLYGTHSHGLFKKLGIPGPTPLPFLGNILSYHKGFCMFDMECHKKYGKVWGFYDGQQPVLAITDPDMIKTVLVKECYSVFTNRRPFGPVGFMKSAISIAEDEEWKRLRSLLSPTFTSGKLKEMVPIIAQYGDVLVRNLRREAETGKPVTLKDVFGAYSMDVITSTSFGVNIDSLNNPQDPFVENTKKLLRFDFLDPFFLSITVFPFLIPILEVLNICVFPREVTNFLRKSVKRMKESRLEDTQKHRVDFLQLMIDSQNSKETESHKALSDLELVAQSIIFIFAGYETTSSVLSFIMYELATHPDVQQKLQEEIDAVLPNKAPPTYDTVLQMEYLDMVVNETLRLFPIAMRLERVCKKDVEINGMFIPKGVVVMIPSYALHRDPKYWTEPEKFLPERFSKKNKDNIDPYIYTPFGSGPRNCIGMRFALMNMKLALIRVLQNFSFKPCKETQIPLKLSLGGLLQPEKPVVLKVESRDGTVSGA
Sequence of CYP2C9 (P11712 whole entry): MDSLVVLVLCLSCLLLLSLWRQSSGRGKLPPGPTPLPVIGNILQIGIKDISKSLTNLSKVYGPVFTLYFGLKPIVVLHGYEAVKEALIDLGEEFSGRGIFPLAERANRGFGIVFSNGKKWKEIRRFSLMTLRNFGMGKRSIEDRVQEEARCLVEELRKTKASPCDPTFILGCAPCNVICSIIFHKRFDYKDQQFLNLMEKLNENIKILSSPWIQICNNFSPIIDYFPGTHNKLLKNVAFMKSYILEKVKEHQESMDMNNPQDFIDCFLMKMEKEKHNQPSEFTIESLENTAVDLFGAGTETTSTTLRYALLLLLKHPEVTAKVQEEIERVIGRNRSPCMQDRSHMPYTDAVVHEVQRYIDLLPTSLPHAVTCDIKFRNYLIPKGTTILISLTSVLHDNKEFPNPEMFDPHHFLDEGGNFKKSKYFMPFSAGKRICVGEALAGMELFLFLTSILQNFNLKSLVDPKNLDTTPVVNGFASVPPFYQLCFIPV
Sequence of adenosine 2A receptor (P29274 whole entry): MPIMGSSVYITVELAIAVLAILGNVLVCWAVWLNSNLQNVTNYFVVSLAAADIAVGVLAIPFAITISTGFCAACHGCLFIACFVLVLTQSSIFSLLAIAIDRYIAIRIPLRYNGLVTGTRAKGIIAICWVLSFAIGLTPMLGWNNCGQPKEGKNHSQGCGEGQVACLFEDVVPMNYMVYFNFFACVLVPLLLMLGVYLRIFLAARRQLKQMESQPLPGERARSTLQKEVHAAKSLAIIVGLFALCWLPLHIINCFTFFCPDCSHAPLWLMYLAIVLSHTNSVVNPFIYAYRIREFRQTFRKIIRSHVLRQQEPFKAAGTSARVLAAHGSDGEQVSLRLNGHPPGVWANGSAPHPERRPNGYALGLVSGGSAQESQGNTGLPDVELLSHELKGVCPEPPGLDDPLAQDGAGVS
Sequence of dopamine transporter (Q01959 whole entry): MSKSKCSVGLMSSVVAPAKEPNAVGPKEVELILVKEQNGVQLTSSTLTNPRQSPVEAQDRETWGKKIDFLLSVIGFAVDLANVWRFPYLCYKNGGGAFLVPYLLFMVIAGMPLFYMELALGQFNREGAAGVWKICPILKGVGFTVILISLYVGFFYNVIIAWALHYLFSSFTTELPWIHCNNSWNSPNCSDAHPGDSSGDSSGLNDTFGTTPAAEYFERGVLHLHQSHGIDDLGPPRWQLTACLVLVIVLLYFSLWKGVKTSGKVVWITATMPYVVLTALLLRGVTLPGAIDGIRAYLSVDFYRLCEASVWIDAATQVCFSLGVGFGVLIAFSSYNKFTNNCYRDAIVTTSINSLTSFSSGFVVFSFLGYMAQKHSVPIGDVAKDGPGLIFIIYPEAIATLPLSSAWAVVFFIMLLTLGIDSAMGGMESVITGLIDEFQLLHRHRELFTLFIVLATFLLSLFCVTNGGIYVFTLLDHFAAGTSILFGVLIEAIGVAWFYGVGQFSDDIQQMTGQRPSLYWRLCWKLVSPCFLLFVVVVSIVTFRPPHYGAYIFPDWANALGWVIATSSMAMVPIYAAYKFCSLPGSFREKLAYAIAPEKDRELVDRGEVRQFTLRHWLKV

Q: With `CNc1nc(Nc2ccc(-n3cnc(C)n3)c(OC(F)F)c2)nc2c1C(C)(C)CC2c1ccc(F)cc1` (single isomer, unassigned) [Enantiomer 1, N2-(3-(difluoromethoxy)-4-(3-methyl-1H-1,2,4-triazol-1-yl)phenyl)-7-(4-fluorophenyl)-N4,5,5-trimethyl-6,7-dihydro-5H-cyclopenta[d]pyrimidine-2,4-diamine] as the compound, how does the “HLM TDI panel TDI ratio, others” value [1] read?
A: < 2

Q: And the “IC50 Ratio 2C19” value (CYP2C19 [2]; [8])?
A: 1.9

Q: What about the IC50 (CYP2C19 [2]; IC50-0 min 2C19, HLM, 0 min preincubation) of the same compound?
A: 22.6 µM

Q: What about the IC50 (CYP2C19 [2]; IC50-30 min 2C19, HLM, 30 min preincubation with NADPH) of the same compound?
A: 12.2 µM

Q: What about the IC50 (CYP3A4 [3]) of the same compound?
A: ~40 µM and 12 µM and 15.1 µM and 4.5 µM and ~12 µM

Q: And the “KI; Kinact” value (CYP3A4 [4]; HLM CYP3A4 inactivation)?
A: Inactivation rates below the limit of reliable

Q: What about the apparent rates of inactivation (kobs) with midazolam (CYP3A4 [4]; [9]) of the same compound?
A: < 0.003 min⁻¹

Q: And the apparent rates of inactivation (kobs) with testosterone (CYP3A4 [4]; [9])?
A: < 0.006 min⁻¹

Q: What about the “mechanism-based inhibition of CYP3A4” value (CYP3A4 [4]; HLM, midazolam and testosterone probes) of the same compound?
A: not a mechanism-based inhibitor of CYP3A4

Q: And the IC50 (monoamine oxidase A)?
A: 8 to 10 µM

Q: What about the IC50 (CYP2C19 [5]) of the same compound?
A: 0.96 µM

Q: And the IC50 (CYP2B6; 0 min preincubation, read-out: IC50-0 min 2B6)?
A: > 40 µM

Q: What about the “IC50 Ratio 2B6” value (CYP2B6; IC50 shift 0 vs 30 min preincubation (TDI ratio)) of the same compound?
A: 1.0

Q: And the IC50 (CYP2B6; read-out: IC50-30 min 2B6, 30 min preincubation with NADPH)?
A: > 40 µM

Q: And the IC50 (dopamine transporter)?
A: 8 to 10 µM

Q: What about the IC50 (adenosine 2A receptor) of the same compound?
A: 2 µM

Q: What about the IC50 [6] of the same compound?
A: > 10 µM

Q: What about the “IC50 Ratio 3A4-(MDZ)” value (CYP3A4 [7]; midazolam probe) of the same compound?
A: 2.6

Q: What about the “IC50 Ratio 3A4-(TST)” value (CYP3A4 [7]; testosterone probe) of the same compound?
A: 2.7

Q: What about the IC50 (CYP2C8; HLM, 0 min preincubation, read-out: IC50-0 min 2C8) of the same compound?
A: 4.2 µM

Q: And the “IC50 Ratio 2C8” value (CYP2C8; [8])?
A: 1.9

Q: And the IC50 (CYP2C8; IC50-30 min 2C8, HLM, 30 min preincubation with NADPH)?
A: 2.2 µM

Q: And the IC50 (Aβ42)?
A: 0.0012 µM

Q: What about the IC50 (CYP2C9) of the same compound?
A: 1.3 µM
